{"source": "patent US20100234381A1", "about": "“BIOMARKERS AND METHODS FOR DETERMINING SENSITIVITY TO VASCULAR ENDOTHELIAL GROWTH FACTOR RECEPTOR-2 MODULATORS” (Bristol-Myers Squibb Company, priority 2007, published 2010)", "key": {"[1]": {"test_system": "FGF2 growth factor gene expression", "experiment": "FGF2 gene expression, AFFYMETRIX human arrays"}, "FGF pathway": {"test_system": "FGF pathway", "experiment": "Gene set enrichment analysis of FGF pathway expression after FGF2 stimulation", "type": "cell-based", "conditions": "1 μm drug after FGF2 stimulation", "experimental": "The expression profiles of individual genes within each pathway were analyzed, and the log of the change in expression profile for each condition was measured. Overall, 67 pathways were analyzed. Each gene analyzed for each pathway have not been provided. But, 46 genes from the FGF pathway, 62 genes from the VEGF pathway were analyzed, and a larger generic number of genes consisting of 92 genes for the FGF pathway were analyzed using the AMBION® gene set."}, "sVEGFR2": {"test_system": "sVEGFR2", "experiment": "Plasma sVEGFR2 change from baseline in patients", "type": "in vivo, human"}, "pERK and pAKT": {"test_system": "pERK and pAKT", "experiment": "Western blot of downstream pERK and pAKT after FGF2 stimulation", "type": "cell-based", "conditions": "2 μm brivanib, 40 ng/ml FGF2, HCC cell line", "method": "Anti-FGFR1, Anti-VEGFR2, Anti-ERK, Anti-AKT, and Anti-alpha tubulin antibodies were also utilized. Blots were incubated with indicated primary antibodies and 1:7500 horseradish peroxidase-conjugated secondary antibodies. All primary antibodies were used at a final concentration of 1 μg/ml. The blots were then visualized with a chemiluminescent detection system."}, "GEO colon cancer model": {"test_system": "GEO colon cancer model", "experiment": "Tumor growth inhibition in GEO colon cancer model", "type": "in vivo", "conditions": "compared to bevacizumab"}, "[2]": {"test_system": "FGF2-stimulated cancer cell lines", "experiment": "FGF2-stimulated tumor cell proliferation, panel of cancer cell lines", "type": "cell-based", "conditions": "for Brivanib-resistant (>3 μM) cell lines, number / Brivanib-sensitive (≦3 μM) cell lines, number: following FGF2 stimulation", "experimental": "[…], GEO, L2987, 786-0, A549, A498, Du145, PANC-1, ACHN, HT1197, CALU6, SKOV3, 769-[…], HCT166 and UMUC3. […] Gene expression profiling was performed on RNA samples from tumor cell lines using AFFYMETRIX® GeneChip System."}, "GEO colon cancer cells": {"test_system": "GEO colon cancer cells", "experiment": "FGF2-induced proliferation of GEO colon cancer cells (modified MTS assay)", "type": "cell-based", "experimental": "Cell Culture-GEO colon cancer cell line was routinely maintained in RPMI 1640 (Cellgro, Virginia) with 1% fetal bovine serum (Cellgro, Virginia) at 37° C. in 5% carbon dioxide/95% air in the presence of 100 units/ml penicillin, 100 μg/ml streptomycin (Cellgro, Virginia). Cell proliferation was determined by a modified MTS assay with […] 96® Aqueous One Solution Reagent (Promega, Madison, Wis.). […] After 180 minutes incubation, the optical densities (OD) of these samples were directly measured using SPECTRAMAX® plus (Molecular Device, California) and reference wavelength of 490 nm. […] Cell proliferation was determined by a modified MTS assay with […] […] After 180 minutes incubation, the optical densities (OD) of these samples were directly measured using SPECTRAMAX® plus (Molecular Device, California) and reference wavelength of 490 nm. […] […]"}, "[3]": {"test_system": "FGF2-stimulated cancer cell lines", "experiment": "FGF2-stimulated tumor cell proliferation, panel of cancer cell lines", "type": "cell-based", "conditions": "following FGF2 stimulation"}}, "note": "“Also recorded” adds a separate entry of the source.", "data": [{"substance": "[(1R),2S]-2-Aminopropionic acid 2-[4-(4-fluoro-2-methyl-1H-indol-5-yloxy)-5-methylpyrrolo[2,1-f][1,2,4]triazin-6-yloxy]-1-methylethyl ester [brivanib]", "values": [{"measurement": "modulation of FGF2 growth factor gene expression levels", "setting": "[1]", "value": "modulated FGF2 growth factor gene expression levels"}, {"measurement": "FGF2-induced FGF pathway up-regulation (expression)", "setting": "FGF pathway", "value": "inhibited only by brivanib; also recorded: abrograted only in the presence of only brivanib"}, {"measurement": "sVEGFR2 change from baseline (%) (Day 26) (n = 39)", "setting": "sVEGFR2; FGF2+ patients (n = 24)", "value": "−23", "unit": "%"}, {"measurement": "sVEGFR2 change from baseline (%) (Day 26) (n = 39)", "setting": "sVEGFR2; FGF2− patients (n = 19)", "value": "−15", "unit": "%"}, {"measurement": "downstream pathway pERK and pAKT", "setting": "pERK and pAKT", "value": "affecting downstream pathway genes such as pERK and pAKT"}, {"measurement": "ability to inhibit tumor growth", "setting": "GEO colon cancer model", "value": "increased affect on the ability to inhibit tumor growth when compared to bevacizumab"}, {"measurement": "Brivanib-resistant (>3 μM) cell lines, number", "setting": "[2]; Bladder cell lines", "value": 2}, {"measurement": "Brivanib-sensitive (≦3 μM) cell lines, number", "setting": "[2]; Bladder cell lines", "value": 1}, {"measurement": "Brivanib-sensitive (≦3 μM) cell lines, number", "setting": "[2]; Colon cell lines", "value": 0}, {"measurement": "Brivanib-sensitive (≦3 μM) cell lines, number", "setting": "[2]; NSCLC cell lines", "value": 2}, {"measurement": "Brivanib-resistant (>3 μM) cell lines, number", "setting": "[2]; Prostate cell lines", "value": 1}, {"measurement": "Brivanib-resistant (>3 μM) cell lines, number", "setting": "[2]; Total of cell lines", "value": 10}, {"measurement": "inhibition of FGF2-induced tumor cell proliferation", "setting": "[2]; panel of cancer cell lines, in vitro", "value": "inhibited FGF2-induced tumor cell proliferation in 16 cancer cell lines; also recorded: inhibits FGF2-induced tumor cell line growth with much lower IC50 values than sunitinib"}, {"measurement": "GEO tumor cell growth over time, stimulated with FGF2", "setting": "GEO colon cancer cells; 2.5 μM brivanib, day 1 to 8 compared to day 0 control", "value": "inhibited GEO tumor cell growth stimulated with FGF2"}, {"measurement": "inhibition of FGF2-induced cellular proliferation in GEO cells", "setting": "GEO colon cancer cells; FGF2 2.5 ng/ml, 72 hours", "value": "potently inhibited; also recorded: inhibited cancer cell growth directly; also recorded: inhibits colon cancer cell growth directly"}, {"measurement": "Brivanib-resistant (>3 μM) cell lines, number", "setting": "[3]; Colon cell lines", "value": 3}, {"measurement": "Brivanib-resistant (>3 μM) cell lines, number", "setting": "[3]; NSCLC cell lines", "value": 1}, {"measurement": "Brivanib-resistant (>3 μM) cell lines, number", "setting": "[3]; Ovarian cell lines", "value": 1}, {"measurement": "Brivanib-sensitive (≦3 μM) cell lines, number", "setting": "[3]; Ovarian cell lines", "value": 1}, {"measurement": "Brivanib-resistant (>3 μM) cell lines, number", "setting": "[3]; Pancreatic cell lines", "value": 1}, {"measurement": "Brivanib-sensitive (≦3 μM) cell lines, number", "setting": "[3]; Pancreatic cell lines", "value": 1}, {"measurement": "Brivanib-sensitive (≦3 μM) cell lines, number", "setting": "[3]; Prostate cell lines", "value": 1}, {"measurement": "Brivanib-resistant (>3 μM) cell lines, number", "setting": "[3]; Renal cell lines", "value": 1}, {"measurement": "Brivanib-sensitive (≦3 μM) cell lines, number", "setting": "[3]; Renal cell lines", "value": 3}, {"measurement": "Brivanib-sensitive (≦3 μM) cell lines, number", "setting": "[3]; Total of cell lines", "value": 9}]}]}
